17 molecules from BindingDB's records for doi:10.1016/j.bioorg.2016.06.001 (Tehran University of Medical Sciences, 2016) can be followed below.

Bounds are passed on as bounds.

Holding throughout (conditions): pH 8
Experiment [1] has as its target Carboxylic ester hydrolase (Equus caballus, UniProt Q9N1N9). Briefly: AChE and BChE Inhibition Assay. The method, then: (§1) In vitro AChEI activity was performed based on the modified Ellman's methodas previously reported by our group using a 96-well plate reader (BioTek ELx808). […] Each well contained 50 uL potassium phosphate buffer (KH2PO4/K2HPO4, 0.1 M, pH 8), 25 uL prepared sample as described above, 25 uL enzyme with final concentration of 0.22 U/mL in buffer. They were preincubated for 15 min at rt, and then 125 uL DTNB (3 mM in buffer) was added. […] The IC50 values were determined graphically from inhibition curves (log inhibitor concentration vs. percent of inhibition).

The target in a further experiment is Acetylcholinesterase (Electrophorus electricus, UniProt O42275). Briefly: AChE and BChE Inhibition Assay. The method, then: as §1
Sequence of Acetylcholinesterase (O42275 whole entry): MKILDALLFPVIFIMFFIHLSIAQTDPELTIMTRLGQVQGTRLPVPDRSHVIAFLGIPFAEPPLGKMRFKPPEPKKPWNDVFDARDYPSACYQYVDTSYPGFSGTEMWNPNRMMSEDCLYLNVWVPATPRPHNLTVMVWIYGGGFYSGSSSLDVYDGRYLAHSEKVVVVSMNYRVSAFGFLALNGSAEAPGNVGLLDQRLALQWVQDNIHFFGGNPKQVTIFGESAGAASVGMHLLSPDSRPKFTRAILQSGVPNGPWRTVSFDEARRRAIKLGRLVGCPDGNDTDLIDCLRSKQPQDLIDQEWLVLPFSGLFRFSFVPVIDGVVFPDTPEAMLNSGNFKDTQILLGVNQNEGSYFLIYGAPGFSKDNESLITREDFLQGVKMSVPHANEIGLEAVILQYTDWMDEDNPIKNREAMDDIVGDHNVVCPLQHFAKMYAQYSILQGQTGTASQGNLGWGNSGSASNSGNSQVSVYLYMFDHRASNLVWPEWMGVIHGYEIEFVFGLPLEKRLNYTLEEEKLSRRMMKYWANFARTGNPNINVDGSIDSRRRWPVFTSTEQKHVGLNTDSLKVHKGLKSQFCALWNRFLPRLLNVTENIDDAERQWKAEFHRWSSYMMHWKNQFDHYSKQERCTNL
Experiment [2] is described as follows: AChE and BChE Inhibition Assay.

Sequence of Carboxylic ester hydrolase (Q9N1N9 whole entry): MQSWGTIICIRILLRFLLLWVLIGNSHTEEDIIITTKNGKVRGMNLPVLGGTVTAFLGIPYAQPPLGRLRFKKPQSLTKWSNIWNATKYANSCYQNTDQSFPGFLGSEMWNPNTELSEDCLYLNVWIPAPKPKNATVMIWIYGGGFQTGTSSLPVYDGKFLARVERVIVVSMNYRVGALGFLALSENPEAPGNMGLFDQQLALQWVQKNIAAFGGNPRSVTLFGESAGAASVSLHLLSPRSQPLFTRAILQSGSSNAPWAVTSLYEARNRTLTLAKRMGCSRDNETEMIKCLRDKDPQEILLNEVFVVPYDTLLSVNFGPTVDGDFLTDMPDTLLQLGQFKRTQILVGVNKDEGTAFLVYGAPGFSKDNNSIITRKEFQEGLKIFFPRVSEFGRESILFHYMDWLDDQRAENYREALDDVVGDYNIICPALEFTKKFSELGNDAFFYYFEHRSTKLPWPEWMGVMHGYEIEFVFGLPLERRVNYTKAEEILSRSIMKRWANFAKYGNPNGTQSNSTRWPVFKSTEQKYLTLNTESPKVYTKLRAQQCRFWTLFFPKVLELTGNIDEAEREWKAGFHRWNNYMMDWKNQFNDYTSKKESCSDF

Broadly, the IC50 is the midpoint of a concentration-inhibition curve. For `Cc1cc(=O)oc2cc(Oc3ccc(Nc4c5c(nc6ccccc46)CCC5)cc3)ccc12` [7-(4-((2,3-Dihydro-1H-cyclopenta[b]quinolin-9-yl)amino)phenoxy)-4-methyl-2H-chromen-2-one (8d)], the values for the IC50 (in experiment [1]; on Acetylcholinesterase) were above 100 µM and 45.3 µM, respectively.
Taken in the same sequence, the figures for `O=c1ccc2ccc(Oc3ccc(Nc4c5c(nc6ccc(Cl)cc46)CCC5)cc3)cc2o1` [7-(4-((7-Chloro-2,3-dihydro-1H-cyclopenta[b]quinolin-9-yl)amino)phenoxy)-2H-chromen-2-one (8c)] were above 100 µM and 38.5 µM.
For the molecule `O=c1ccc2ccc(Oc3ccc(Nc4c5c(nc6ccccc46)CCCCC5)cc3)cc2o1` [7-(4-((7,8,9,10-Tetrahydro-6H-cyclohepta[b]quinolin-11-yl)amino)phenoxy)-2H-chromen-2-one (8m)], the IC50 (in experiment [1]; against Acetylcholinesterase) was above 100 µM throughout.
As for `O=c1ccc2ccc(Oc3ccc(Nc4c5c(nc6cc(Cl)ccc46)CCCC5)cc3)cc2o1` [7-(4-((6-Chloro-1,2,3,4-tetrahydroacridin-9-yl)amino)phenoxy)-2H-chromen-2-one (8h)], the half-maximal inhibitory concentration (IC50) (in experiment [1]; at Acetylcholinesterase) was above 100 µM each time.
On to `Cc1cc(=O)oc2cc(Oc3ccc(Nc4c5c(nc6cc(Cl)ccc46)CCCCC5)cc3)ccc12` [7-(4-((3-Chloro-7,8,9,10-tetrahydro-6H-cyclohepta[b]quinolin-11-yl)amino)phenoxy)-4-methyl-2H-chromen-2-one (8p)], for which the concentration for half-maximal inhibition (IC50) is above 100 µM in experiment [1] and 31.8 µM at Acetylcholinesterase.
On the same counts, the results for `Cc1cc(=O)oc2cc(Oc3ccc(Nc4c5c(nc6ccc(Cl)cc46)CCC5)cc3)ccc12` [7-(4-((7-Chloro-2,3-dihydro-1H-cyclopenta[b]quinolin-9-yl)amino)phenoxy)-4-methyl-2H-chromen-2-one (8f)] are above 100 µM and 36.7 µM.
With `O=c1ccc2ccc(Oc3ccc(Nc4c5c(nc6cc(Cl)ccc46)CCCCC5)cc3)cc2o1` [7-(4-((3-Chloro-7,8,9,10-tetrahydro-6H-cyclohepta[b]quinolin-11-yl)amino)phenoxy)-2H-chromen-2-one (8n)], the IC50 (in experiment [1]; against Acetylcholinesterase) was above 100 µM in each case.
Turning to `Cc1cc(=O)oc2cc(Oc3ccc(Nc4c5c(nc6ccc(Cl)cc46)CCCCC5)cc3)ccc12` [7-(4-(2-Chloro-7,8,9,10-tetrahydro-6H-cyclohepta[b]quinolin-11-ylamino)phenoxy)-4-methyl-2H-chromen-2-one (8q)], the IC50 in experiment [1] was above 100 µM; on Acetylcholinesterase, 54.1 µM.
`Cc1cc(=O)oc2cc(Oc3ccc(Nc4c5c(nc6ccccc46)CCCCC5)cc3)ccc12` [4-Methyl-7-(4-((7,8,9,10-tetrahydro-6H-cyclohepta[b]quinolin-11-yl)amino)phenoxy)-2H-chromen-2-one (8o)]: the IC50 in experiment [1] was above 100 µM; against Acetylcholinesterase it was 64.4 µM.
With `O=c1ccc2ccc(Oc3ccc(Nc4c5c(nc6ccccc46)CCC5)cc3)cc2o1` [7-(4-((2,3-Dihydro-1H-cyclopenta[b]quinolin-9-yl)amino)phenoxy)-2H-chromen-2-one (8a)], the figures for the 50% inhibitory concentration (IC50) (in experiment [1]; at Acetylcholinesterase) were above 100 µM and 83.1 µM, respectively.
On to `O=c1ccc2ccc(Oc3ccc(Nc4c5c(nc6ccc(Cl)cc46)CCCC5)cc3)cc2o1` [7-(4-((7-Chloro-1,2,3,4-tetrahydroacridin-9-yl)amino)phenoxy)-2H-chromen-2-one (8i)], for which the IC50 (in experiment [1]; at Acetylcholinesterase) was above 100 µM each time.
With `O=c1ccc2ccc(Oc3ccc(Nc4c5c(nc6ccccc46)CCCC5)cc3)cc2o1` [7-(4-((1,2,3,4-Tetrahydroacridin-9-yl)amino)phenoxy)-2H-chromen-2-one (8g)], the concentration for half-maximal inhibition (IC50) in experiment [1] amounted to 28.7 µM; against Acetylcholinesterase it was 19.1 µM.
Take `Cc1cc(=O)oc2cc(Oc3ccc(Nc4c5c(nc6cc(Cl)ccc46)CCCC5)cc3)ccc12` [7-(4-((6-Chloro-1,2,3,4-tetrahydroacridin-9-yl)amino)phenoxy)-4-methyl-2H-chromen-2-one (8k)]: the concentration for half-maximal inhibition (IC50) stood at 31.2 µM in experiment [1] and 18 µM against Acetylcholinesterase.
Turning to `Cc1cc(=O)oc2cc(Oc3ccc(Nc4c5c(nc6cc(Cl)ccc46)CCC5)cc3)ccc12` [7-(4-((6-Chloro-2,3-dihydro-1H-cyclopenta[b]quinolin-9-yl)amino)phenoxy)-4-methyl-2H-chromen-2-one (8e)], the IC50 in experiment [1] is above 100 µM; at Acetylcholinesterase, 16.2 µM; in experiment [2], 7.99 µM.
Turning to `O=c1ccc2ccc(Oc3ccc(Nc4c5c(nc6cc(Cl)ccc46)CCC5)cc3)cc2o1` [7-(4-((6-Chloro-2,3-dihydro-1H-cyclopenta[b]quinolin-9-yl)amino)phenoxy)-2H-chromen-2-one (8b)], the IC50 in experiment [1] is 11.6 µM; against Acetylcholinesterase it was above 100 µM.
Taken in the same sequence, the figures for `Cc1cc(=O)oc2cc(Oc3ccc(Nc4c5c(nc6ccccc46)CCCC5)cc3)ccc12` [4-Methyl-7-(4-((1,2,3,4-tetrahydroacridin-9-yl)amino)phenoxy)-2H-chromen-2-one (8j)] were 38.6 µM and 22.1 µM.
`Cc1cc(=O)oc2cc(Oc3ccc(Nc4c5c(nc6ccc(Cl)cc46)CCCC5)cc3)ccc12` [7-(4-((7-Chloro-1,2,3,4-tetrahydroacridin-9-yl)amino)phenoxy)-4-methyl-2H-chromen-2-one (8l)]: the concentration for half-maximal inhibition (IC50) in experiment [1] is above 100 µM; at Acetylcholinesterase, 30.8 µM.
